Measured values reported in PubChem BioAssay AID330 (DTP/NCI, 2004).
Where “and” joins values, the source holds several entries; their conditions need not be identical. Equal values may be shown once. Toxic doses and inconclusive results are not listed.

Test system: P388 leukemia ip, CD2F1 mice, survival T/C
Assay: NCI In Vivo Anticancer Drug Screen. Data for tumor model P388 Leukemia (intraperitoneal) in CD2F1 (CDF1) mice
Settings: endpoint: median survival time, higher = longer survival
Procedure, shortened: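 Mice carrying the transplanted tumor received test compound or vehicle. Survival was recorded in each group, and the value is the treated-group measurement divided by that of the vehicle-treated control group.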

[1] = dose: 50.0 mg/kg/injection, schedule: Q01DX005 (ip), vehicle: saline with Tween-80
[2] = dose: 100.0 mg/kg/injection, schedule: Q01DX005 (ip), vehicle: saline with Tween-80
[3] = dose: 200.0 mg/kg/injection, schedule: Q01DX005 (ip), vehicle: saline with Tween-80
[4] = dose: 50.0 mg/kg/injection, schedule: Q01DX005 (ip), vehicle: Klucel (hydroxypropylcellulose) (HPC)
[5] = dose: 100.0 mg/kg/injection, schedule: Q01DX005 (ip), vehicle: Klucel (hydroxypropylcellulose) (HPC)
[6] = dose: 200.0 mg/kg/injection, schedule: Q01DX005 (ip), vehicle: Klucel (hydroxypropylcellulose) (HPC)
[7] = dose: 50.0 mg/kg/injection, schedule: Q01DX009 (ip), vehicle: saline with Tween-80
[8] = dose: 100.0 mg/kg/injection, schedule: Q01DX009 (ip), vehicle: saline with Tween-80
[9] = dose: 200.0 mg/kg/injection, schedule: Q01DX009 (ip), vehicle: saline with Tween-80
[10] = dose: 50.0 mg/kg/injection, schedule: Q01DX009 (ip), vehicle: saline
[11] = dose: 100.0 mg/kg/injection, schedule: Q01DX009 (ip), vehicle: saline
[12] = dose: 200.0 mg/kg/injection, schedule: Q01DX009 (ip), vehicle: saline
[13] = dose: 60.0 mg/kg/injection, schedule: Q01DX005 (ip), vehicle: saline with Tween-80
[14] = dose: 25.0 mg/kg/injection, schedule: Q01DX009 (ip), vehicle: saline with Tween-80

CSc1n[nH]c(C2CCC(=O)N2Cc2ccccc2)n1 (stereo unspecified)
T/C [1]: 103 % of control | T/C [2]: 101 % of control | T/C [3]: 100 % of control

CCN(CC)Cc1cc(N=Nc2cc(OC)c(N=Nc3ccc([N+](=O)[O-])cc3)cc2OC)c2ccccc2c1O
T/C (dose: 12.5 mg/kg/injection, schedule: Q01DX009 (ip), vehicle: Klucel (hydroxypropylcellulose) (HPC)): 110 % of control | T/C (dose: 25.0 mg/kg/injection, schedule: Q01DX009 (ip), vehicle: Klucel (hydroxypropylcellulose) (HPC)): 100 % of control | T/C (dose: 50.0 mg/kg/injection, schedule: Q01DX009 (ip), vehicle: Klucel (hydroxypropylcellulose) (HPC)): 107 % of control and 90 % of control | T/C (dose: 100.0 mg/kg/injection, schedule: Q01DX009 (ip), vehicle: Klucel (hydroxypropylcellulose) (HPC)): 100 % of control (2×) and 94 % of control | T/C (dose: 400.0 mg/kg/injection, schedule: Q01DX009 (ip), vehicle: Klucel (hydroxypropylcellulose) (HPC)): 101 % of control and 91 % of control

C=C(C)C12CC(COC(=O)c3ccccc3)C34OC5(OC1C3C1OC1(COC(=O)CCCCCCCCCCCCCCC)C(O)C1(O)C(OC(=O)c3ccccc3)C(C)C(C(C)CCCCCCC5O)C14)O2 (stereo unspecified)
T/C (dose: 12.5 micrograms/kg/injection, schedule: Q01DX009 (ip), vehicle: saline): 103 % of control | T/C (dose: 25.0 micrograms/kg/injection, schedule: Q01DX009 (ip), vehicle: saline): 103 % of control | T/C (dose: 50.0 micrograms/kg/injection, schedule: Q01DX009 (ip), vehicle: saline): 99 % of control

CCOC(=O)C1Cc2c([nH]c(=O)[nH]c2=O)OC1(C)c1ccccc1 (stereo unspecified)
T/C [4]: 103 % of control | T/C [5]: 98 % of control | T/C [6]: 97 % of control

CCCCCCCCC(CCc1ccccc1)CCc1ccccc1
T/C (dose: 50.0 mg/kg/injection, schedule: Q01DX001 (ip), vehicle: saline with Tween-80): 88 % of control | T/C (dose: 200.0 mg/kg/injection, schedule: Q01DX001 (ip), vehicle: saline with Tween-80): 100 % of control

Cc1nc2ccccc2[n]1[Sn]([CH3])([CH3])[n]1c(C)nc2ccccc21
T/C (dose: 12.5 mg/kg/injection, schedule: Q01DX005 (ip), vehicle: Klucel (hydroxypropylcellulose) (HPC)): 118 % of control | T/C (dose: 25.0 mg/kg/injection, schedule: Q01DX005 (ip), vehicle: Klucel (hydroxypropylcellulose) (HPC)): 118 % of control | T/C [4]: 112 % of control and 118 % of control

CN(c1ccccc1)C(C#N)c1n[nH]c(=O)[nH]1 (stereo unspecified)
T/C (dose: 25.0 mg/kg/injection, schedule: Q04DX002 (ip), vehicle: saline with Tween-80): 100 % of control | T/C (dose: 50.0 mg/kg/injection, schedule: Q04DX002 (ip), vehicle: saline with Tween-80): 100 % of control | T/C (dose: 100.0 mg/kg/injection, schedule: Q04DX002 (ip), vehicle: saline with Tween-80): 93 % of control

CC[n+]1c(-c2ccccc2)c2cc(NCCCN)ccc2c2ccc(N)cc21
T/C (dose: 1.25 mg/kg/injection, schedule: Q01DX009 (ip), vehicle: water): 97 % of control | T/C (dose: 2.5 mg/kg/injection, schedule: Q01DX009 (ip), vehicle: water): 116 % of control | T/C (dose: 5.0 mg/kg/injection, schedule: Q01DX009 (ip), vehicle: water): 103 % of control | T/C (dose: 10.0 mg/kg/injection, schedule: Q01DX009 (ip), vehicle: water): 115 % of control | T/C (dose: 20.0 mg/kg/injection, schedule: Q01DX009 (ip), vehicle: water): 116 % of control

Cc1cnc2cc(Cl)ccc2c1Cl
T/C [4]: 101 % of control | T/C [5]: 100 % of control | T/C [6]: 103 % of control

CCC1=C[C@H]2CN(CCc3c([nH]c4ccccc34)[C@@](C(=O)OC)(c3cc4c(cc3OC)N(C)[C@H]3[C@@](O)(C(=O)OC)[C@H](OC(C)=O)[C@]5(CC)C=CCN6CC[C@]43[C@@H]65)C2)C1
T/C (dose: 0.06 mg/kg/injection, schedule: Q01DX009 (ip), vehicle: water): 109 % of control | T/C (dose: 0.13 mg/kg/injection, schedule: Q01DX009 (ip), vehicle: water): 162 % of control | T/C (dose: 0.2 mg/kg/injection, schedule: Q01DX009 (ip), vehicle: saline): 151 % of control | T/C (dose: 0.25 mg/kg/injection, schedule: Q01DX009 (ip), vehicle: water): 106 % of control | T/C (dose: 0.4 mg/kg/injection, schedule: Q01DX009 (ip), vehicle: saline): 163 % of control | T/C (dose: 0.5 mg/kg/injection, schedule: Q04DX003 (ip), vehicle: water): 151 % of control | T/C (dose: 0.8 mg/kg/injection, schedule: Q01DX009 (ip), vehicle: saline): 178 % of control | T/C (dose: 1.0 mg/kg/injection, schedule: Q04DX003 (ip), vehicle: water): 169 % of control | T/C (dose: 2.0 mg/kg/injection, schedule: Q04DX003 (ip), vehicle: water): 205 % of control | T/C (dose: 4.0 mg/kg/injection, schedule: Q04DX003 (ip), vehicle: water): 241 % of control | T/C (dose: 8.0 mg/kg/injection, schedule: Q04DX003 (ip), vehicle: water): 87 % of control

CCOC(=O)Nc1nc2cc(C(=O)OC)n(C)c2s1
T/C [7]: 95 % of control | T/C [8]: 86 % of control | T/C [9]: 88 % of control

ClC1=C(Cl)C2(Cl)C3C(c4cc(Br)c(Br)cc4C4C3C3(Cl)C(Cl)=C(Cl)C4(Cl)C3(Cl)Cl)C1(Cl)C2(Cl)Cl (stereo unspecified)
T/C [10]: 101 % of control | T/C [11]: 106 % of control | T/C [12]: 102 % of control

Cc1onc(-c2c(F)cccc2Cl)c1C(=O)N[C@@H]1C(=O)N2[C@@H]1SC(C)(C)[C@@H]2C(=O)O
T/C [10]: 102 % of control | T/C [11]: 105 % of control | T/C [12]: 107 % of control

COC(=O)c1ccc(C)c(NS(=O)(=O)c2ccc3c(c2)c(=O)sn3C)c1
T/C [1]: 102 % of control | T/C [2]: 110 % of control | T/C [3]: 112 % of control

C[n+]1ccccc1-c1ccc[n+](CCCC[n+]2cccc(-c3cccc[n+]3C)c2)c1
T/C [13]: 106 % of control | T/C (dose: 120.0 mg/kg/injection, schedule: Q01DX005 (ip), vehicle: saline with Tween-80): 116 % of control

CC1(C)CC(=O)C=C(NCc2ccccc2)C1
T/C [14]: 104 % of control | T/C [7]: 104 % of control and 90 % of control | T/C [8]: 101 % of control and 96 % of control | T/C [9]: 99 % of control and 91 % of control

CC1(CO)CSC(Nc2ccc(Cl)c(Cl)c2)=N1 (stereo unspecified)
T/C (dose: 3.12 mg/kg/injection, schedule: Q01DX009 (ip), vehicle: saline with Tween-80): 101 % of control | T/C (dose: 6.25 mg/kg/injection, schedule: Q01DX009 (ip), vehicle: saline with Tween-80): 100 % of control and 98 % of control | T/C (dose: 12.5 mg/kg/injection, schedule: Q01DX009 (ip), vehicle: saline with Tween-80): 102 % of control | T/C [14]: 104 % of control | T/C [7]: 100 % of control | T/C [8]: 113 % of control | T/C [9]: 98 % of control

COc1ccc(/C=C(/C(=O)O)c2ccc(OC)cc2)cc1
T/C (dose: 100.0 mg/kg/injection, schedule: Q04DX003 (ip), vehicle: other): 100 % of control | T/C (dose: 200.0 mg/kg/injection, schedule: Q04DX003 (ip), vehicle: other): 95 % of control | T/C (dose: 400.0 mg/kg/injection, schedule: Q04DX003 (ip), vehicle: other): 100 % of control

O=C(Nc1cc(Cl)ccc1Cl)O/N=C/c1ccncc1
T/C [7]: 93 % of control | T/C [8]: 94 % of control | T/C [9]: 94 % of control

CC[C@H]1CN2CCc3c([nH]c4ccccc34)[C@@H]2C[C@@H]1/C(=C\OC)C(=O)OC
T/C [1]: 108 % of control | T/C [2]: 108 % of control | T/C [3]: 108 % of control

CCOC(=O)N(C)N=NCCCl
T/C (dose: 7.5 mg/kg/injection, schedule: Q01DX005 (ip), vehicle: saline with Tween-80): 117 % of control | T/C (dose: 15.0 mg/kg/injection, schedule: Q01DX005 (ip), vehicle: saline with Tween-80): 118 % of control | T/C (dose: 30.0 mg/kg/injection, schedule: Q01DX005 (ip), vehicle: saline with Tween-80): 175 % of control | T/C [13]: 94 % of control

NC(=O)c1ncn(C2OC(CO)C(O)C2O)n1 (stereo unspecified)
T/C (dose: 10.0 mg/kg/injection, schedule: Q01DX009 (ip), vehicle: saline): 99 % of control and 101 % of control | T/C (dose: 20.0 mg/kg/injection, schedule: Q01DX009 (ip), vehicle: saline): 104 % of control | T/C (dose: 40.0 mg/kg/injection, schedule: Q01DX009 (ip), vehicle: saline): 105 % of control and 106 % of control and 109 % of control | T/C (dose: 80.0 mg/kg/injection, schedule: Q01DX009 (ip), vehicle: saline): 108 % of control and 112 % of control and 118 % of control | T/C (dose: 160.0 mg/kg/injection, schedule: Q01DX009 (ip), vehicle: saline): 122 % of control | T/C (dose: 320.0 mg/kg/injection, schedule: Q01DX009 (ip), vehicle: saline): 87 % of control

CCOC(=O)c1cc2c(ccn2OC)[nH]1
T/C (dose: 100.0 mg/kg/injection, schedule: Q04DX003 (ip), vehicle: saline with Tween-80): 102 % of control
